Holding throughout (type): functional
In assay [1] the test system is Hordeum vulgare subsp. vulgare. The assay can be described thus: Amylase induction activity in barley aleurone layer at 0.01 uM.
Assay [2] relates to Hordeum vulgare subsp. vulgare. The assay can be described thus: Amylase induction activity in barley aleurone layer at 0.1 uM.
For assay [3], the system named is Hordeum vulgare subsp. vulgare. The assay is described as follows: Amylase induction activity in barley aleurone layer at 1 uM.

For the molecule `CC1=C(C(=O)O)[C@H]2[C@@H](C(C)C)CC[C@]1(C)[C@H]2CO`, the Activity in assay [1] is 0; in assay [2], 1; in assay [3], 4.

For the origin of these results see ChEMBL document CHEMBL1150997, “Novel compound stimulates amylase induction in barley seeds” (Bioorg Med Chem Lett, 1994).
